In patent US6465204B1, “Amidase” (Diversa Corporation, priority 1996, dated 2002):

How the values were obtained:
[1] = tested on: Thermococcus GU5L5 amidase; experiment: Substrate specificity of the amidase (fluorogenic substrates); type: biochemical; details: substrate 100 μM, 1 hour at 70° C.; ratio between substrates
Method: Fifty μL of the ‘600 μM stock solution’ was added to each of the wells of a white condensed plate using the Biomek to yield a final concentration of substrate of ˜100 μM. The fluorescence values were recorded (excitation=400 nm, emission=505 nm) on a plate reading fluorometer immediately after addition of the substrate. The plate was incubated at 70° C. for 60 min. and the fluorescence values were recorded again. The initial and final fluorescence values were subtracted to determine if an active clone was present by an increase in fluorescence over the majority of the other wells.
The excitation and emission wavelengths for the 7-amido-4-methylcoumarins were 380 and 460 nm respectively, and 326 and 450 for the methylumbelliferone.

[2] = tested on: Thermococcus GU5L5 amidase; experiment: Activity and enantioselectivity of the amidase in increasing concentrations of DMF; type: biochemical; details: for Initial Rate: RT, cell lysate, pH 7.5 Hepes
Method: The activity and enantioselectivity of the amidase in increasing concentrations of dimethyl formamide (DMF) was tested as follows: to each well of a microtiter plate was added 30 μL of 1 mM CBZ-L-arg-AMC or CBZ-D-arg-AMC in DMF, 30 μL of cell lysate containing the amidase activity, and 240 μL of a variable mixture of DMF:pH 7.5, 50 mM Hepes buffer. The reactiosn were incubated at RT for 1 hour and the fluorescence measured at 1 minute intervals.

[3] = Temperature tolerance of the enzyme; design: species or system Thermococcus GU5L5
[4] = Organic solvent sensitivity: activity of the amidase in increasing concentrations of DMSO; type: biochemical, Thermococcus GU5L5
Method: The activity of the amidase in increasing concentrations of dimethyl sulfoxide (DMSO) was tested as follows: to each well of a microtiter plate was added 10 μL of 3 mM CBZ-L-phe-AMC in DMSO, 25 μL of cell lysate containing the amidase activity, and 250 μL of a variable mixture of DMSO:pH 7.5, 50 mM Hepes buffer. The reactions were heated for 1 hour at 70° C. and the fluorescence measured. […] The filled and open boxes represent individual assays.

Cc1cc(=O)oc2cc(NC(=O)[C@H](CCCNC(=N)N)NC(=O)OCc3ccccc3)ccc12 [CBZ-L-arg-AMC, Nα-carbonylbenzyloxy-L-arginine-7-amido-4-methylcoumarin]
relative activity of the amidase [1]: 3
Initial Rate ([2]; DMF 0.4%): 654 Fl.U./min
Initial Rate ([2]; DMF 10%): 2548 Fl.U./min
Initial Rate ([2]; DMF 20%): 1451 Fl.U./min
Initial Rate ([2]; DMF 30%): 541 Fl.U./min
Initial Rate ([2]; DMF 40%): 345 Fl.U./min
Initial Rate ([2]; DMF 50%): 303 Fl.U./min
Initial Rate ([2]; DMF 60%): 190 Fl.U./min
Initial Rate ([2]; DMF 75%): 81 Fl.U./min
Initial Rate ([2]; DMF 90%): 11 Fl.U./min

Cc1cc(=O)oc2cc(NC(=O)[C@@H](CCCNC(=N)N)NC(=O)OCc3ccccc3)ccc12 [CBZ-D-arg-AMC, Nα-carbonylbenzyloxy-D-arginine-7-amido-4-methylcoumarin]
Initial Rate ([2]; DMF 0.4%): 0.3 Fl.U./min
Initial Rate ([2]; DMF 10%): 10.1 Fl.U./min
Initial Rate ([2]; DMF 20%): 4.6 Fl.U./min
Initial Rate ([2]; DMF 30%): 1.8 Fl.U./min
Initial Rate ([2]; DMF 40%): 0.9 Fl.U./min
Initial Rate ([2]; DMF 50%): 1.2 Fl.U./min
Initial Rate ([2]; DMF 60%): 1.4 Fl.U./min
Initial Rate ([2]; DMF 75%): 0.1 Fl.U./min
Initial Rate ([2]; DMF 90%): 0.1 Fl.U./min

CSCC[C@H](NC(=O)OCc1ccccc1)C(=O)Nc1ccc2c(C)cc(=O)oc2c1 [CBZ-L-met-AMC, Nα-carbonylbenzyloxy-L-methionine-7-amido-4-methylcoumarin]
relative activity of the amidase [1]: 1

Cc1cc(=O)oc2cc(NC(=O)[C@H](Cc3ccccc3)NC(=O)OCc3ccccc3)ccc12 [CBZ-L-phe-AMC, Nα-carbonylbenzyloxy-L-phenylalanine-7-amido4-methylcoumarin]
relative activity of the amidase [1]: 3

B1: enzyme: purified thermostable amidase derived from Thermococcus GU5L5, 622 amino acid residues (SEQ ID NO:2) (protein)
chain: MTGIEWNHETFSKFAYLGDPRIRGNLIAYTLTKANMKDNKYESTVVVEDLETGSRRFIENASMPRISPDGRKLAFTCFNEEKKETEIWVADIQTLSAKKVLSTKNVRSMQWNDDSRRLLVVGFKRRDDEDFVFDDDVPVWFDNMGFFDGEKTTFWVLDTEAEEIIEQFEKPRFSSGLWHGDAIVVNVPHREGSKPALFKFYDIVLWKDGEEEKLFERVSFEAVDSDGKRILLRGKKKKRFISEHDWLYLWDGELKPIYEGPLDVWEAKLTEGKVYFLTPDAGRVNLWLWDGKAERVVTGDHWIYGLDVSDGKALLLIMTATRIGELYLYDGELKQVTEYNGPIFRKLKTFEPRHFRFKSKDLEIDGWYLRPEVKEEKAPVIVFVHGGPKGMYGHRFVYEMQLMASKGYYVVFVNPRGSDGYSEDFALRVLERTGLEDFEDIMNGIEEFFKLEPQADRERVGITGISYGGFMTNWALTQSDLFKAGISENGISYWLTSYAFSDIGLWYDVEVIGPNPLENENFRKLSPLFYAQNVKAPILLIHSLEDYRCPLDQSLMFYNVLKDMGKEAYIAIFKRGAHGHSVRGSPRHRPKRYRLFIEFFERKLKKYEEGFEVEKILKGNGN
temperature tolerated [3]: at least 70 °C
selectivity for the L enantiomer of the derivatized amino acid substrate ([2]; CBZ-L-arg-AMC versus CBZ-D-arg-AMC): excellent selectivity for the L
concentration of organic solvent tolerated [4]: > 40 % DMSO
